# From patent US20050154230A1, “Urea derivatives” (Bayer HealthCare AG, priority 2001, published 2005)
# pIC50: −log10 of the molar value.
# What was measured:
# human VR1 = target: T1, human VR1 (Homo sapiens, UniProt Q8NER1); assay: Capsaicin-induced Ca2+ influx in the human VR1-transfected CHO cell line (Assay 1); type: cell-based; conditions: human VR1-CHOluc9aeq cells, 10 nM capsaicin; compound purity about 40 to 90%; read-out: hVR1 class
# T1 construct: expressed in transfected cells
# Outline: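 CHO cells expressing human VR1 with an aequorin reporter were treated with compound or vehicle for 20 min at 25° C. Capsaicin-induced Ca^2+ influx was then measured on an FDSS-3000. Integral R was calculated and compared with controls.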
# T1 sequence (Q8NER1 whole entry): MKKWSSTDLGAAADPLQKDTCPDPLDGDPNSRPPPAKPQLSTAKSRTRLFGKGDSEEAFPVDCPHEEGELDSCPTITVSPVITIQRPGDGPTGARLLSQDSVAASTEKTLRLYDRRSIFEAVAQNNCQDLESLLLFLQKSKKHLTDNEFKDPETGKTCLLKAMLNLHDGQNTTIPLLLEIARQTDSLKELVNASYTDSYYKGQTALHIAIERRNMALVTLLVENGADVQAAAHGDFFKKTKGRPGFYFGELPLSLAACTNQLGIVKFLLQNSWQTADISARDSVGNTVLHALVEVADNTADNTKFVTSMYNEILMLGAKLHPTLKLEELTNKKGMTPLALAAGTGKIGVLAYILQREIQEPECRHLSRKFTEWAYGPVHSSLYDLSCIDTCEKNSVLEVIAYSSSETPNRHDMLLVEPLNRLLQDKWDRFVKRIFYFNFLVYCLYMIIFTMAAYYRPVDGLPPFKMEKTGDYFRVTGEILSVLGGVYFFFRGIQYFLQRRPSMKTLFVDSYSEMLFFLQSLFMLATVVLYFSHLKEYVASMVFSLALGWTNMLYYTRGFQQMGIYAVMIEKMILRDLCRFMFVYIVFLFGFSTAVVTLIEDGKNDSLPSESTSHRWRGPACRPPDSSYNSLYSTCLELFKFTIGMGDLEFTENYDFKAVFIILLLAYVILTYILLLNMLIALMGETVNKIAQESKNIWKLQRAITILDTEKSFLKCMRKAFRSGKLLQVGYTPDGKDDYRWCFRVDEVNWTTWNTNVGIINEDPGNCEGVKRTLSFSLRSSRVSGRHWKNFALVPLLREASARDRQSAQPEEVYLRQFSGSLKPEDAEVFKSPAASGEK
Structure (SMILES),pIC50 (human VR1),melting point [°C]
O=C(Nc1ccc([N+](=O)[O-])c(C(F)(F)F)c1)Nc1ccccc1CCO [Example 187],6.30 to 7.00,149 to 150
COc1cc(NC(=O)Nc2ccccc2CCO)cc(C(F)(F)F)c1 [Example 188],> 7.00,161 to 162
O=C(Nc1cc(C(F)(F)F)ccc1F)Nc1ccccc1CCO [Example 189],6.00 to 6.30,150 to 152
O=C(Nc1ccc(F)c(Cl)c1)Nc1ccccc1CCO [Example 190],6.30 to 7.00,193 to 194
N#Cc1ccc(NC(=O)Nc2ccccc2CCO)cc1Cl [Example 191],6.30 to 7.00,186 to 187
O=C(Nc1ccc(-c2ccc(F)cc2)cc1)Nc1ccccc1CCO [Example 192],6.30 to 7.00,197
O=C(Nc1cccc(-c2cccc(Cl)c2)c1)Nc1ccccc1CCO [Example 195],> 7.00,175
O=C(Nc1cccc(-c2ccccc2Cl)c1)Nc1ccccc1CCO [Example 196],> 7.00,153
Cc1ccc(C)c(-c2cccc(NC(=O)Nc3ccccc3CCO)c2)c1 [Example 197],> 7.00,167
COc1ccc(OC)c(-c2cccc(NC(=O)Nc3ccccc3CCO)c2)c1 [Example 198],6.30 to 7.00,170
O=C(Nc1cccc(-c2ccc(F)cc2F)c1)Nc1ccccc1CCO [Example 199],> 7.00,169
Cc1ccc(-c2cccc(NC(=O)Nc3ccccc3CCO)c2)cc1 [Example 200],> 7.00,178
O=C(Nc1ccc(-c2ccccc2)cc1)Nc1ccccc1CCO [Example 201],6.30 to 7.00,194
O=C(Nc1ccc(Cl)c(-c2ccccc2)c1)Nc1ccccc1CCO [Example 202],6.30 to 7.00,185
O=C(Nc1cccc(-c2cccs2)c1)Nc1ccccc1CCO [Example 203],> 7.00,195
COc1ccc(-c2cccc(NC(=O)Nc3ccccc3CCO)c2)cc1 [Example 204],> 7.00,166
COc1ccccc1-c1cccc(NC(=O)Nc2ccccc2CCO)c1 [Example 205],6.30 to 7.00,130
CSc1ccc(-c2cccc(NC(=O)Nc3ccccc3CCO)c2)cc1 [Example 206],> 7.00,191
O=C(Nc1cccc(-c2ccc(F)c(F)c2)c1)Nc1ccccc1CCO [Example 207],> 7.00,181
O=C(Nc1cccc(-c2cc(F)cc(F)c2)c1)Nc1ccccc1CCO [Example 208],> 7.00,169
O=C(Nc1cccc(-c2cc(Cl)ccc2Cl)c1)Nc1ccccc1CCO [Example 209],> 7.00,142
O=C(Nc1cccc(-c2ccccc2F)c1)Nc1ccccc1CCO [Example 210],> 7.00,171 to 172
O=C(Nc1cccc(-c2cccc(F)c2)c1)Nc1ccccc1CCO [Example 211],> 7.00,188

Structure (SMILES),pIC50 (human VR1),melting point [°C]
O=C(Nc1cccc(-c2cccnc2)c1)Nc1ccccc1CCO [Example 212],6.00 to 6.30,178.9
O=C(Nc1cccc(-c2cc(F)ccc2F)c1)Nc1ccccc1CCO [Example 213],> 7.00,150
O=C(Nc1cccc(-c2cccc3ccccc23)c1)Nc1ccccc1CCO [Example 214],> 7.00,113
O=C(Nc1cccc(-c2ccc(F)c(Cl)c2)c1)Nc1ccccc1CCO [Example 215],> 7.00,176
O=C(Nc1cccc(-c2ccc(Cl)c(Cl)c2)c1)Nc1ccccc1CCO [Example 216],> 7.00,180
O=C(Nc1cccc(-c2cc(Cl)cc(Cl)c2)c1)Nc1ccccc1CCO [Example 217],> 7.00,184
O=C(Nc1ccc(Cl)c(-c2ccc(Cl)cc2)c1)Nc1ccccc1CCO [Example 218],> 7.00,170 to 172
COc1ccc(NC(=O)Nc2ccccc2CCO)cc1OC [Example 219],6.00 to 6.30,186 to 187
O=C(Nc1ccc2c(c1)OCO2)Nc1ccccc1CCO [Example 220],6.00 to 6.30,183 to 184
O=C(Nc1ccc2[nH]ncc2c1)Nc1ccccc1CCO [Example 221],6.00 to 6.30,234 to 236
O=C(Nc1cccc(-c2ccc(C(F)(F)F)cc2)c1)Nc1ccccc1CCO [Example 222],> 7.00,198
O=C(Nc1cccc(-c2ccc(Cl)cc2Cl)c1)Nc1ccccc1CCO [Example 223],> 7.00,166
CC(=O)c1ccc(-c2cccc(NC(=O)Nc3ccccc3CCO)c2)cc1 [Example 224],> 7.00,205
CCOC(=O)c1ccc(-c2cccc(NC(=O)Nc3ccccc3CCO)c2)cc1 [Example 225],> 7.00,196
CCOC(=O)c1cccc(-c2cccc(NC(=O)Nc3ccccc3CCO)c2)c1 [Example 226],> 7.00,133
COc1ccc(Cl)cc1-c1cccc(NC(=O)Nc2ccccc2CCO)c1 [Example 227],> 7.00,141 to 143
COc1ccc(Cl)cc1-c1cccc(NC(=O)Nc2ccccc2CCO)c1 [Example 228],> 7.00,126 to 129
O=C(Nc1cccc(-c2ccc([N+](=O)[O-])cc2)c1)Nc1ccccc1CCO [Example 229],> 7.00,197 to 198
N#Cc1ccc(-c2cccc(NC(=O)Nc3ccccc3CCO)c2)cc1 [Example 230],> 7.00,180 to 182
COc1cccc(OC)c1-c1cccc(NC(=O)Nc2ccccc2CCO)c1 [Example 231],6.00 to 6.30,180 to 181
N#Cc1cccc(-c2cccc(NC(=O)Nc3ccccc3CCO)c2)c1 [Example 232],> 7.00,186 to 187
O=C(Nc1cccc(-c2ccccc2Cl)c1)Nc1cc(C(F)(F)F)ccc1CCO [Example 233],6.30 to 7.00,185 to 187
O=C(Nc1cccc(-c2cccc([N+](=O)[O-])c2)c1)Nc1ccccc1CCO [Example 234],> 7.00,188

Structure (SMILES),pIC50 (human VR1),melting point [°C]
COc1ccc(F)cc1-c1cccc(NC(=O)Nc2ccccc2CCO)c1 [Example 235],> 7.00,158 to 160
O=C(Nc1cccc(-c2ccc(OCc3ccccc3)c(F)c2)c1)Nc1ccccc1CCO [Example 236],> 7.00,181 to 182
COc1cc(-c2cccc(NC(=O)Nc3ccccc3CCO)c2)cc(OC)c1OC [Example 237],6.30 to 7.00,81 to 83
O=C(Nc1cccc(-c2cccc(C(F)(F)F)c2)c1)Nc1ccccc1CCO [Example 238],> 7.00,180
O=C(Nc1cccc(-c2cccc(OC(F)(F)F)c2)c1)Nc1ccccc1CCO [Example 239],> 7.00,166
O=C(Nc1cccc(-c2ccc(OC(F)(F)F)cc2)c1)Nc1ccccc1CCO [Example 240],> 7.00,184
O=C(Nc1cccc(-c2ccccc2C(F)(F)F)c1)Nc1ccccc1CCO [Example 241],> 7.00,153
COc1cccc(-c2cccc(NC(=O)Nc3ccccc3CCO)c2)c1 [Example 242],> 7.00,163
O=C(Nc1ccc(-c2ccccc2)s1)Nc1ccccc1CCO [Example 243],> 7.00,159
O=C(Nc1ccc(-c2ccccc2)c(Cl)c1)Nc1ccccc1CCO [Example 244],6.30 to 7.00,178
O=C(Nc1cccc(-c2ccccc2Cl)c1)Nc1ccc(Cl)cc1CCO [Example 245],6.30 to 7.00,191 to 193
O=C(Nc1cccc(-c2ccc(Cl)cc2)c1)Nc1ccc(Cl)cc1CCO [Example 246],6.00 to 6.30,209 to 211
O=C(Nc1cccc(-c2ccoc2)c1)Nc1ccccc1CCO [Example 247],> 7.00,190
Cc1ccc(-c2cccc(NC(=O)Nc3ccccc3CCO)c2)cc1Cl [Example 248],> 7.00,194
O=C(Nc1cccc(-c2ccc(Cl)c(F)c2)c1)Nc1ccccc1CCO [Example 249],> 7.00,180
O=C(Nc1ccccc1CCO)Nc1cccc2c1Cc1ccccc1-2 [Example 253],> 7.00,182 to 183
O=C(Nc1ccc(Cl)c(C(F)(F)F)c1)Nc1cccc(C(F)(F)F)c1CCO [Example 254],6.30 to 7.00,201
O=C(Nc1ccc(Cl)c(C(F)(F)F)c1)Nc1cccc(Br)c1CCO [Example 255],> 7.00,209
Cc1cccc(NC(=O)Nc2ccc(Cl)c(C(F)(F)F)c2)c1CCO [Example 256],> 7.00,201
O=C(Nc1ccc(Cl)c(C(F)(F)F)c1)Nc1cccc(-c2ccccc2)c1CCO [Example 257],6.30 to 7.00,173
Cc1cccc(NC(=O)NCc2ccc(C(F)(F)F)cc2)c1CCO [Example 258],> 7.00,213
